Several values for one entry are separate records, joined by “and”; a condition that tells them apart may be missing. Identical values can stand only once. Like-named read-outs stand apart in the source and are kept apart here.
Biological target: Mtb NDH-2 (Mycobacterium tuberculosis, UniProt P95160)
Type: biochemical

Sequence of Mtb NDH-2 (P95160 whole entry): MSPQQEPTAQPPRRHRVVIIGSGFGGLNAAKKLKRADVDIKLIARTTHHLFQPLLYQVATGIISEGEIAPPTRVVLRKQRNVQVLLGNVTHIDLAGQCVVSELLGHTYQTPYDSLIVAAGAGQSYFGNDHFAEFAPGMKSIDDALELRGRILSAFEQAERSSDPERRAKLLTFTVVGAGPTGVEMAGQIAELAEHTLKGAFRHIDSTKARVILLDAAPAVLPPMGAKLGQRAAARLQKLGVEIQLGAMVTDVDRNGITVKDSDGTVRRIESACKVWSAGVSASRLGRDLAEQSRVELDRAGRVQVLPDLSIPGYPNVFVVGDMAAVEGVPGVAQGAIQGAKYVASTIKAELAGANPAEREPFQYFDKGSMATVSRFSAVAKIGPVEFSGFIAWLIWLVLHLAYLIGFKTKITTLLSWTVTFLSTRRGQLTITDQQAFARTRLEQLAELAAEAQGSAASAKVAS

For `NC(=O)C1=CN([C@@H]2O[C@H](COP(=O)(O)OP(=O)(O)OC[C@H]3O[C@@H](n4cnc5c(N)ncnc54)[C@H](O)[C@@H]3O)[C@@H](O)[C@H]2O)C=CC1` [NADH, nicotinamide adenine dinucleotide, reduced form], the Km (read-out: KM for NADH (average), membrane-bound NDH-2 with UQ0, average) was 280 µM and the Km (read-out: KM^NADH) was 240 µM and 320 µM.

`COC1=C(OC)C(=O)C(C)=CC1=O` [UQ0] showed a kcat of 570.0 ± 200 s^–1, a kcat ([…], NADH oxidation with the quinone as electron acceptor, [NADH] varied) of 580.0 ± 170 s^–1 and a kcat ([…], ratio plot, [UQ0] = 6.25[NADH]) of 330 ± 15 s^–1. It also gave a Vmax (membrane-bound NDH-2, both with and without UQ1H2) of 0.12 ± 0.01 A340 min^–1 nM^–1 and a Km (read-out: apparent KM value for UQ0, membrane-bound NDH-2, absence of UQ1H2 (Figure 6C)) of 350 ± 7 µM.

In the case of `COc1c(O)c(C)c(CC=C(C)C)c(O)c1OC` [UQ1H2], the inhibition (1.0 mM UQ1H2, 0.05 mM UQ1 as electron acceptor, membrane-bound NDH-2) is reported as 30 ± 10% and the increase in activity (UQ0 as electron acceptor, membrane-bound NDH-2) is reported as “up to 5 fold”.
